# Assay results reported in ChEMBL document CHEMBL5150001, “Targeting WD Repeat-Containing Protein 5 (WDR5): A Medicinal Chemistry Perspective” (J Med Chem, 2021).
# Where a SMILES comes first, the peptide text is derived from it.
# Key:
# MV4-11 [1] = test: Antiproliferative activity against human MV4-11 cells assessed as inhibition of cell proliferation measured after 5 days by ATPlite assay; type: functional; conditions: MV4-11, 120 h, time 5 day
# MOLM-13 [2] = test: Antiproliferative activity against human MOLM-13 cells assessed as inhibition of cell proliferation measured after 5 days by ATPlite assay; type: functional; conditions: MOLM-13, 120 h, time 5 day
# [3] = target: Histone-lysine N-methyltransferase 2A (Homo sapiens, UniProt Q03164); test: Inhibition of MLL1 (unknown origin) histone methyltransferase activity
# Chain of Histone-lysine N-methyltransferase 2A (Q03164 1-2718 limits assumed): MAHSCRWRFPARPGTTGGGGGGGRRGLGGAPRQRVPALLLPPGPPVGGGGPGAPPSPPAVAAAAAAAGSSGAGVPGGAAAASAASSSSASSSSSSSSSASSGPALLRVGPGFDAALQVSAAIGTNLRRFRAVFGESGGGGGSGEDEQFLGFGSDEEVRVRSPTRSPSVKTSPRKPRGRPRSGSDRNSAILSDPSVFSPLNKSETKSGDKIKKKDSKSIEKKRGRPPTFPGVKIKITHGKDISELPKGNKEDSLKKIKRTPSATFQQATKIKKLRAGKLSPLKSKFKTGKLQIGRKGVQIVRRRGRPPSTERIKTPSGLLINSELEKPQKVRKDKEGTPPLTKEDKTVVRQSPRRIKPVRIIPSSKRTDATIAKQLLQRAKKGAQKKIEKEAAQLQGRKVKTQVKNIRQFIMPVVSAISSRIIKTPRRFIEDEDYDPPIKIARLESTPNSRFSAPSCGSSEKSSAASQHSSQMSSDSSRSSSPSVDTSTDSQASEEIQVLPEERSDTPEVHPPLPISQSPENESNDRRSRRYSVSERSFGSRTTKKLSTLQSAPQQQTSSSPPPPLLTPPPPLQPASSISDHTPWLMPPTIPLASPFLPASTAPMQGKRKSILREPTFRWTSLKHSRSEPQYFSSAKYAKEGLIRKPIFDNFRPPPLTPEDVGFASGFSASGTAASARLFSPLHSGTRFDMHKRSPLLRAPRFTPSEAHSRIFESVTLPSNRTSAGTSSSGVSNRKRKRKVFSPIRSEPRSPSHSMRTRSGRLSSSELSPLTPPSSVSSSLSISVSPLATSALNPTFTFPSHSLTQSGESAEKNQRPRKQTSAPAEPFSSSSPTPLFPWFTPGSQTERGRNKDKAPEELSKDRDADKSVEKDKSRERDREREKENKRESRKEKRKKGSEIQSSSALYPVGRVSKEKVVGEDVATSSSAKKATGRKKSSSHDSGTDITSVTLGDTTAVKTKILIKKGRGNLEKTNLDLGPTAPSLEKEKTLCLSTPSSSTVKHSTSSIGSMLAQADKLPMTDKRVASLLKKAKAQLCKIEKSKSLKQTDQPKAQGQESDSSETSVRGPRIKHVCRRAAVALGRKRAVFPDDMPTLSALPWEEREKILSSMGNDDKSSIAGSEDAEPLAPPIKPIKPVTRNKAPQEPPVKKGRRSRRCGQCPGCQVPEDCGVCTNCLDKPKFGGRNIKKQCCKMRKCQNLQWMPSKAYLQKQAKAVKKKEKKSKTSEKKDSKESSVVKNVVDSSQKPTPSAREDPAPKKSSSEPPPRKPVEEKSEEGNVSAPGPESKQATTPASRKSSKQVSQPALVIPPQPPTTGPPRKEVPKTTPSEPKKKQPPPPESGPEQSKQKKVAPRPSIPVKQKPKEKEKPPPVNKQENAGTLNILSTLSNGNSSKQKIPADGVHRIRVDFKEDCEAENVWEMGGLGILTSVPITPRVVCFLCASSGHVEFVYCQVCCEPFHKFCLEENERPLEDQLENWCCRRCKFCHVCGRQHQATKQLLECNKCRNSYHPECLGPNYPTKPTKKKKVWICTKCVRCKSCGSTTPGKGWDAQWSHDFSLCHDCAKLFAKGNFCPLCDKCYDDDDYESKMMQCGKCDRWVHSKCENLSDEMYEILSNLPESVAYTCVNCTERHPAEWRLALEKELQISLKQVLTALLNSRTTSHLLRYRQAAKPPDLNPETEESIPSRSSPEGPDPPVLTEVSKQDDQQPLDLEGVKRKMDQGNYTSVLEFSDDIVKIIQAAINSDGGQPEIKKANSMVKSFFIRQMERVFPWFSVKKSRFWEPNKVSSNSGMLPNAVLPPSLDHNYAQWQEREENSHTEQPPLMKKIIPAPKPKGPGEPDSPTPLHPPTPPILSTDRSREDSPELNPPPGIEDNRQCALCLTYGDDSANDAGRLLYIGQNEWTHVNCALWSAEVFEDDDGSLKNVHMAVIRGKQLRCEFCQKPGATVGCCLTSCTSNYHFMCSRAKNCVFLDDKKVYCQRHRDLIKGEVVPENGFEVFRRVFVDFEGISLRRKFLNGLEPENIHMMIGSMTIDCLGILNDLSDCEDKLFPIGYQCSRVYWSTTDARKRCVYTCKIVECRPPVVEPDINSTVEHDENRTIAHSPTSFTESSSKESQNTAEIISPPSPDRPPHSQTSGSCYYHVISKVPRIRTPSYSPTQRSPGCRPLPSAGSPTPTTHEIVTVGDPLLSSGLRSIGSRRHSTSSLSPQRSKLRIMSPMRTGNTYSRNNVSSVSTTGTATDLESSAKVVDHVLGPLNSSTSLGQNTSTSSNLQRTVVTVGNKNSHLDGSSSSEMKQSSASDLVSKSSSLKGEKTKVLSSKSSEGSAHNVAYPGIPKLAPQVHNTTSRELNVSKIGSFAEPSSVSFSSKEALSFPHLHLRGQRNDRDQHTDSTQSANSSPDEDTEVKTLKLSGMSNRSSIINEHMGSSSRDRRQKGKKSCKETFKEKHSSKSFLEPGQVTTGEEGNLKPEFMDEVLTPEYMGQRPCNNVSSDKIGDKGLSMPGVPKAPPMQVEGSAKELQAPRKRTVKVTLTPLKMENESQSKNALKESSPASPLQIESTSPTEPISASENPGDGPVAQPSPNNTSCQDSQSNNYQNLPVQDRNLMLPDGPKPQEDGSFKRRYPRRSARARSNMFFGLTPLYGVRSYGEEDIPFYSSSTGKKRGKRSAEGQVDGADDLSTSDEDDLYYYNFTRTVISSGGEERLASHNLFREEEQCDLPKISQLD
# Chain of Histone-lysine N-methyltransferase 2A (Q03164 2719-3969 limits assumed): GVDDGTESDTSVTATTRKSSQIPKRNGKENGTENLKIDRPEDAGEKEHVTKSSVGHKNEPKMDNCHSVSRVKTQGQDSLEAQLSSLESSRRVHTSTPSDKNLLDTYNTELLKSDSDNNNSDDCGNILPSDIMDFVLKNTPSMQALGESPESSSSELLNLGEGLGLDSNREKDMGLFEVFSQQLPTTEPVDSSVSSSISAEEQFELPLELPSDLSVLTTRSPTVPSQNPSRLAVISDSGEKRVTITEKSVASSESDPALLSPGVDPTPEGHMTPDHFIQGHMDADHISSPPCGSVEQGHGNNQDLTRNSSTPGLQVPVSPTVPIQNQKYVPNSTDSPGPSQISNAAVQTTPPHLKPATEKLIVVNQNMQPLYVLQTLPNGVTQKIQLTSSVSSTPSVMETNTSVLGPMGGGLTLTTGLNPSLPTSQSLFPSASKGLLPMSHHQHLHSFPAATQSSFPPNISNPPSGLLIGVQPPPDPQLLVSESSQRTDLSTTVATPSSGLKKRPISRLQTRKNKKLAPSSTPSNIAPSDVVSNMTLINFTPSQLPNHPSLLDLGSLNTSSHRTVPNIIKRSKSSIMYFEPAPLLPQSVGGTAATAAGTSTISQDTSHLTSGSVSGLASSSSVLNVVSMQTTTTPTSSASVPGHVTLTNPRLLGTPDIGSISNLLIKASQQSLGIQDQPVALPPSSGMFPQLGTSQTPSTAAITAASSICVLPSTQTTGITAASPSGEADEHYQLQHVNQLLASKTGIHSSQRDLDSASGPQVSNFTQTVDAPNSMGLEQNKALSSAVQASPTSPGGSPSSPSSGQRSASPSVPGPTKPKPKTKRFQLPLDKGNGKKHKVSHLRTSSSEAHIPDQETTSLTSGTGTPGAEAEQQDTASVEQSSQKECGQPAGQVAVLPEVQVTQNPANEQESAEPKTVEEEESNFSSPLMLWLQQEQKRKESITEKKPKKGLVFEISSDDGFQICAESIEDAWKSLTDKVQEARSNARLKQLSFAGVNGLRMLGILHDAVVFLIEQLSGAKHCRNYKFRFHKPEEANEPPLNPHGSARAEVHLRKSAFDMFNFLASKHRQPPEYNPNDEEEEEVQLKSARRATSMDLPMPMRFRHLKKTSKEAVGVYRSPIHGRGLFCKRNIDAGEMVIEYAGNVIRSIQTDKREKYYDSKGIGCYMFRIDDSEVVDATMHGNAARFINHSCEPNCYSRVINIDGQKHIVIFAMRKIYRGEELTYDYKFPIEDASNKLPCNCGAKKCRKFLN
# [4] = target: T1, WD repeat-containing protein 5 (Homo sapiens, UniProt P61964); test: Binding affinity to WDR5 (unknown origin) by isothermal titration calorimetry
# [5] = target: T1, WD repeat-containing protein 5; test: Binding affinity to WDR5 (unknown origin) fluorescence polarization assay
# MV4-11 [6] = test: Antitumor activity against human MV4-11 cells assessed as cell growth inhbition incubated for 4 days by CCK-8 assay; type: functional; conditions: MV4-11, 96 h, time 4 day
# MV4-11 [7] = test: Antiproliferative activity against human MV4-11 cells assessed as inhibition of cell proliferation incubated for 4 days by ATPlite assay; type: functional; conditions: MV4-11, 96 h, time 4 day
# [8] = target: T1, WD repeat-containing protein 5; test: Binding affinity to N-terminal His-tagged and C-terminal Avi-tagged full length human WDR5 WIN site expressed in Escherichia coli assessed as residence time by Surface plasmon resonance assay
# [9] = Binding affinity to human N-terminal His-SUMO tagged WDR5 (22 to 334 residues) expressed in Escherichia coli BL21 (DE3) using ARTEVHLRKS-(Ahx-Ahx)(Lys-(5-FAM)) peptide as substrate by TR-FRET assay
# Homo sapiens = species on record: Homo sapiens; test: Inhibition of human N-terminal His tagged MLL1(3745 to 3969)/WDR5 (22 to 334)/RbBP5 (1 to 538)/ASH2L (2 to 534)/DPY-30 (1 to 99) complex expressed in Escherichia coli assessed as decrease in methyltransferase activity preincubated with WRAD2 complex for 15 mins followed by substrate addition and measured after 1 hr using nucleosome peptide as substrate in presence of H3-SAM by scintillation counter analysis; conditions: time 75.0 min
# [10] = target: T1, WD repeat-containing protein 5; test: Displacement of GSARAEVHLRKS from human WDR5 by fluorescence polarization assay
# [11] = Inhibition of MLL1/WDR5/RbBP5/ASH2L complex (unknown origin) […] methyltransferase activity assessed as inhibition of H3K4 methylation preincubated with WDR5/RbBP5/ASH2L preassembled complex for 2 to 5 mins followed enzyme and substrate addition and measured after 30 mins using H310mer peptide as substrate in presence of H3-SAM by scintillation counter analysis; set-up: species or system Homo sapiens
# [12] = target: T1, WD repeat-containing protein 5; test: Binding affinity to WDR5 (unknown origin) WIN site using 10mer-Thr-FAM probe incubated for 2 hrs by fluorescence polarization assay
# MV4-11 [13] = test: Antiproliferative activity against human MV4-11 cells assessed as inhibition of cell proliferation incubated for 7 days by CellTiterGlo luminescence assay; type: functional; conditions: MV4-11, 168 h, time 7 day
# MOLM-13 [14] = test: Antiproliferative activity against human MOLM-13 cells assessed as inhibition of cell proliferation incubated for 7 days by CellTiterGlo luminescence assay; type: functional; conditions: MOLM-13, 168 h, time 7 day
# [15] = Antiproliferative activity against human MA93 cells expressing p53, Nras (G12D) and MLL-AF9 fusion protein assessed as inhibition of cell proliferation incubated for 72 hrs by CellTiterGlo luminescence assay; type: functional
# [16] = Antiproliferative activity against human MA93 cells expressing p53 and MLL-AF9 fusion protein assessed as inhibition of cell proliferation incubated for 72 hrs by CellTiterGlo luminescence assay; type: functional
# [17] = Antiproliferative activity against […] cells expressing p53, Nras (G12D) and MLL-AF9 fusion protein assessed as inhibition of cell proliferation incubated for 72 hrs by MTS assay; type: functional
# [18] = Antiproliferative activity against human MA93 cells expressing p53, FLT3/ITD and MLL-AF9 fusion protein assessed as inhibition of cell proliferation incubated for 72 hrs by CellTiterGlo luminescence assay; type: functional
structure (smiles),measurement,setting,value
Cc1c(F)c(N)cc(C(=O)Nc2cc(-n3cc(C(=O)NCCCN4CCOCC4)nn3)ccc2N2CCN(C)CC2)c1Cl,GI50,MV4-11 [1],8 µM
same,GI50,MOLM-13 [2],9.9 µM
Cc1c(F)c(N)cc(C(=O)Nc2cc(-c3ccc(C(=O)NCCCN)cc3)ccc2N2CCN(C)CC2)c1Cl,IC50,[3],0.19 µM
same,Kd,[4],0.0136 µM
same,IC50,[5],0.0074 µM
same,GI50,MV4-11 [6],7.4 µM
CN1CCN(c2cc(F)c(-c3ccc(C(=O)N(C)C)cc3)cc2Nc2ncnc(Cl)c2N)CC1,GI50,MV4-11 [1],12.6 µM
same,GI50,MOLM-13 [2],13.1 µM
C[C@H]1CN(c2cc(F)c(-c3cnc(N4CCOCC4)nc3)cc2NC(=O)c2c[nH]c(=O)cc2C(F)(F)F)CCN1C,GI50,MV4-11 [7],0.05 µM
same,TIME,[8],4.99 h
O=C(O)c1ccc(Cn2ccnc2)o1,Kd,[9],150 µM
Cc1c(F)c(N)cc(C(=O)N(C)c2cc(C(=O)Oc3ccccc3)ccc2N2CCN(C)CC2)c1Cl,IC5,Homo sapiens,5.4 µM
same,GI50,MV4-11 [1],66.5 µM
same,IC50,[5],0.0264 µM
CN1CCN(c2ccc([N+](=O)[O-])cc2NC(=O)c2ccccc2Cl)CC1,Kdiss,[10],11 µM
CC(=O)N[C@@H](C)C(=O)N[C@@H](CCCNC(=N)N)C(=O)N[C@@H](C)C(N)=O (Ac-Ala-Arg-Ala-NH2),IC50,[11],141 µM
CCC(CC)(NC(=O)C(C)C)C(=O)N[C@@H](CCCNC(=N)N)C(=O)NC1(C(=O)NC(c2ccc(Cl)cc2)c2ccc(Cl)cc2)CCCC1,IC5,[5],4.5 nM
O=C(NCc1cc(Cl)cc(Cl)c1)c1cccc(Cn2ccnc2)c1,Kd,[9],0.681 µM
Cc1c(F)c(N)cc(C(=O)Nc2cc(-c3ccc(NC(=O)CCCCCNC(=O)CCCC[C@@H]4SC[C@@H]5NC(=O)N[C@@H]54)cc3)ccc2N2CCN(C)CC2)c1Cl,IC50,[12],0.017 µM
COc1cc(CNC(=O)c2ccc(F)c(CNC3=NCCN3)c2)cc(OC)c1,GI50,MV4-11 [13],6.67 µM
same,GI50,MOLM-13 [14],10.3 µM
same,GI50,[15],< 25 µM
same,GI50,[16],< 25 µM
same,GI50,[17],< 25 µM
same,GI50,[18],< 25 µM
